Structures are written as SMILES.

The subject of test [1] is 5-HT concentrations. As to the kind of experiment: Brain microdialysis after chronic (21 day) administration; 5-HT in perfusate. The format is in vivo. The note with it: 10 mg/kg, percentage increase over vehicle treated controls. The method, then:
(§1) Animals with dialysis probes inserted in brain regions were placed in the dialysis apparatus and the probes perfused with artificial cerebrospinal fluid. Samples of perfusate were collected every 20 minutes after an initial 30 minute washout period. Basal samples were collected for 2 hours before administration of drug or vehicle by the oral route. Further samples were collected for up to 4 hours post drug administration. Samples were analysed for 5-HT by HPLC with electrochemical detection.
The method differed from that for acute administration in that animals were treated with fluoxetine or vehicle for 21 days prior to placement in the dialysis apparatus. The subsequent manipulations were as described above. The 5-HT concentration in the treated group was expressed as the percentage increase over vehicle treated controls.

Test [2] deals with 5-HT concentrations. Nature of the test: Brain microdialysis, acute oral administration; 5-HT in perfusate by HPLC with electrochemical detection. Type of test: in vivo. To be noted: brain dialysate. On the procedure:
as §1
Data was expressed as a percentage of a pre-injection control, obtained by averaging the last three samples prior to drug/vehicle administration. Transformed data (natural log of percentages) was analysed by ANOVA with repeated measures.

On to `CNCCC(Oc1ccc(C(F)(F)F)cc1)c1ccccc1` (stereo not drawn) [Fluoxetine, N-methyl-3-(p-trifluoromethylphenoxy)-3-phenylpropylamine], for which the “% increase in 5-HT concentrations” value stood at 184% in test [1] and 99% in test [2] (10 or 20 mg/kg, oral (maximum possible response)). For `CC1(C)C(=O)N(CCN2CCC(C(=O)c3ccc(F)cc3)CC2)c2ccccc21.Cl` [Compound of formula (I), 1-[2-[4-(4-fluorobenzoyl)-1-piperidinyl]ethyl]-1,3-dihydro-3,3-dimethyl-2H-indol-2-one, monohydrochloride], the “% increase in 5-HT concentrations” value in test [2] (10 mg/kg, oral) is listed as 110%.

For the origin of these results see patent publication US20030212109A1, “Pharmaceutical compositions and their use” (priority 2000, published 2003).
